Measured values as given in patent publication US20110028442A1, “DERIVATIVES OF 4-(2-AMINO-1-HYDROXYETHYL) PHENOL AS AGONISTS OF THE BETA2 ADRENERGIC RECEPTOR” (priority 2008, published 2011).
Values belong to the compound of their own block, whether it stands above or below them.

How the values were obtained:
[1] = target: T1, human adrenergic β2 receptor (Homo sapiens, UniProt P07550); assay: Human adrenergic β2 receptor binding assay (3H-CGP12177, Sf9 membranes); details: for IC50: membranes from Sf9 cells, 0.14 nM 3H-CGP12177, 60 minutes at room temperature; for β1/β2 ratio: ratio of human β1 IC50 to human β2 IC50
T1 construct: purchased Perkin Elmer; host or cells: Sf9 cells
T1 sequence (P07550 whole entry): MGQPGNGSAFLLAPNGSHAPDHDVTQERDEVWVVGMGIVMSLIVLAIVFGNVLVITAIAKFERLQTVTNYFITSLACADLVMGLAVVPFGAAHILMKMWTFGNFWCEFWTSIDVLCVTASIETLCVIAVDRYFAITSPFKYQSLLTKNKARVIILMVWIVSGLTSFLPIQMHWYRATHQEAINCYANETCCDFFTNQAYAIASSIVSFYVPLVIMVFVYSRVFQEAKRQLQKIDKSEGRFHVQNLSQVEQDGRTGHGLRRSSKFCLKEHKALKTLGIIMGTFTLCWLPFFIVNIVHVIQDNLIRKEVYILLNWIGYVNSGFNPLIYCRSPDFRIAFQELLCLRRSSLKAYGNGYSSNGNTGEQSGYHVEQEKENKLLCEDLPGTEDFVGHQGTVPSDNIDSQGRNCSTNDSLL
Procedure: (§1) Human Adrenergic β1 and β2 Receptor Binding Assays
(§2) The study of binding to human adrenergic β1 and β2 receptors was performed using commercial membranes prepared from Sf9 cells where they are overexpressed (Perkin Elmer).
(§3) The membrane suspensions (16 μg/well for β1 and 5 μg/well for β2) in assay buffer, 75 mM Tris/HCl with 12.5 mM MgCl2 and 2 mM EDTA pH=7.4, were incubated with 0.14 nM 3H-CGP12177 (Amersham) and different concentrations of the test compounds, in a final volume of 250 μl, in GFC Multiscreen 96 well plates (Millipore) pretreated with +0.3% PEI. Non specific binding was measured in the presence of 1 μM propanolol. Incubation was for 60 minutes at room temperature and with gentle shaking. The binding reactions were terminated by filtration and washing with 2.5 volumes of Tris/HCl 50 mM pH=7.4. The affinity of each test compound to the receptor was determined by using at least six different concentrations ran in duplicate. IC50 values were obtained by non-linear regression using SAS.

[2] = target: T2, human adrenergic β1 receptor (Homo sapiens, UniProt P08588); assay: Human adrenergic β1 receptor binding assay (3H-CGP12177, Sf9 membranes); details: membranes from Sf9 cells, 0.14 nM 3H-CGP12177, 60 minutes at room temperature
T2 construct: purchased Perkin Elmer; host or cells: Sf9 cells
T2 sequence (P08588 whole entry): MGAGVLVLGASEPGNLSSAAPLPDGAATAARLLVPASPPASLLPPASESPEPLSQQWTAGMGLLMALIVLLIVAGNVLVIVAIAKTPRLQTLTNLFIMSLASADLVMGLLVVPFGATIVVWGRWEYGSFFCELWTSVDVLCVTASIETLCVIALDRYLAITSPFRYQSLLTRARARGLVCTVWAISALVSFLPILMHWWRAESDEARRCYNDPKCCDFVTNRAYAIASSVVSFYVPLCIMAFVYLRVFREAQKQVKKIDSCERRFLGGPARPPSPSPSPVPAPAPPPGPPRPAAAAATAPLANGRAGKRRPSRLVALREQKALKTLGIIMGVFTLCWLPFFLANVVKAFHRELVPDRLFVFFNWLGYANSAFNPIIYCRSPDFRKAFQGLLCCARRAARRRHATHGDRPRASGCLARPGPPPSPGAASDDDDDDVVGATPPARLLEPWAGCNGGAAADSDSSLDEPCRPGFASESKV
Procedure: as §1, §2, §3

SMILES: CC(Cc1cccc(NC(=O)NCc2ccccc2)c1)NCC(O)c1ccc(O)c2[nH]c(=O)ccc12 [Example 3, N-benzyl-N′-[3-((2R,S)-2-{[(2R,S)-2-hydroxy-2-(8-hydroxy-2-oxo-1,2-dihydroquinolin-5-yl)ethyl]amino}propyl)phenyl]urea]
IC50 [1]: 0.012 µM
β1/β2 ratio [1]: 8.2
IC50 [2]: 0.098 µM

SMILES: COc1ccccc1CNC(=O)Nc1cccc(CC(C)NCC(O)c2ccc(O)c3[nH]c(=O)ccc23)c1 [Example 6, N-[3-(2R,S)-2-{[(2R,S)-2-hydroxy-2-(8-hydroxy-2-oxo-1,2-dihydroquinolin-5-yl)ethyl]amino}propyl)phenyl]-N′-(2-methoxybenzyl)urea]
IC50 [1]: 0.0046 µM
β1/β2 ratio [1]: 11.7
IC50 [2]: 0.054 µM

SMILES: O=C(NCc1ccccc1)Nc1cccc(CCNCC(O)c2ccc(O)c3[nH]c(=O)ccc23)c1 [Example 8, N-benzyl-N′-[3-(2-{[(2R,S)-2-hydroxy-2-(8-hydroxy-2-oxo-1,2-dihydroquinolin-5-yl)ethyl]amino}ethyl)phenyl]urea]
IC50 [1]: 0.0044 µM
β1/β2 ratio [1]: 11.0
IC50 [2]: 0.049 µM

SMILES: COc1ccccc1CNC(=O)Nc1cccc(CCNCC(O)c2ccc(O)c3[nH]c(=O)ccc23)c1 [Example 9, N-[3-(2-{[(2R,S)-2-hydroxy-2-(8-hydroxy-2-oxo-1,2-dihydroquinolin-5-yl)ethyl]amino}ethyl)phenyl]-N′-(2-methoxybenzyl)urea]
IC50 [1]: 0.0056 µM
β1/β2 ratio [1]: 7.9
IC50 [2]: 0.0445 µM

SMILES: O=C(NCCc1ccccc1)Nc1cccc(CCNCC(O)c2ccc(O)c3[nH]c(=O)ccc23)c1 [Example 11, N-[3-(2-{[(2R,S)-2-hydroxy-2-(8-hydroxy-2-oxo-1,2-dihydroquinolin-5-yl)ethyl]amino}ethyl)phenyl]-N′-(2-phenylethyl)urea]
IC50 [1]: 0.0062 µM
β1/β2 ratio [1]: 1.4
IC50 [2]: 0.009 µM

SMILES: O=C(NCCCc1ccccc1)Nc1cccc(CCNCC(O)c2ccc(O)c3[nH]c(=O)ccc23)c1 [Example 12, N-[3-(2-{[(2R,S)-2-hydroxy-2-(8-hydroxy-2-oxo-1,2-dihydroquinolin-5-yl)ethyl]amino}ethyl)phenyl]-N′-(3-phenylpropyl)urea]
IC50 [1]: 0.0026 µM
β1/β2 ratio [1]: 7.4
IC50 [2]: 0.0195 µM

SMILES: O=C(Nc1ccccc1)Nc1cccc(CCNCC(O)c2ccc(O)c3[nH]c(=O)ccc23)c1 [Example 15, N-[3-(2-{[(2R,S)-2-hydroxy-2-(8-hydroxy-2-oxo-1,2-dihydroquinolin-5-yl)ethyl]amino}ethyl)phenyl]-N′-phenylurea]
IC50 [1]: 0.0105 µM
β1/β2 ratio [1]: 0.4
IC50 [2]: 0.0044 µM

SMILES: O=C(Nc1cccc(CCNCC(O)c2ccc(O)c3[nH]c(=O)ccc23)c1)NC12CC3CC(CC(C3)C1)C2 [Example 16, N-1-adamantyl-N′-[3-(2-{[(2R,S)-2-hydroxy-2-(8-hydroxy-2-oxo-1,2-dihydroquinolin-5-yl)ethyl]amino}ethyl)phenyl]urea]
IC50 [1]: 0.01 µM
β1/β2 ratio [1]: 3.8
IC50 [2]: 0.0385 µM

SMILES: O=C(NCc1c(Cl)cccc1Cl)Nc1cccc(CCNCC(O)c2ccc(O)c3[nH]c(=O)ccc23)c1 [Example 17, N-(2,6-dichlorobenzyl)-N′-[3-(2-{[(2R,S)-2-hydroxy-2-(8-hydroxy-2-oxo-1,2-dihydroquinolin-5-yl)ethyl]amino}ethyl)phenyl]urea]
IC50 [1]: 0.006 µM
β1/β2 ratio [1]: 13
IC50 [2]: 0.078 µM

The next lines start with the values.

IC50 [1]: 0.0076 µM
β1/β2 ratio [1]: 6.0
IC50 [2]: 0.0455 µM
SMILES: CC(C)(C)c1ccc(CNC(=O)Nc2cccc(CCNC[C@H](O)c3ccc(O)c4[nH]c(=O)ccc34)c2)cc1 (racemic) [Example 33, N-(4-tert-butylbenzyl)-N′-[3-(2-{[(2R,S)-2-hydroxy-2-(8-hydroxy-2-oxo-1,2-dihydroquinolin-5-yl)ethyl]amino}ethyl)phenyl]urea]

IC50 [1]: 0.0029 µM
β1/β2 ratio [1]: 4.5
IC50 [2]: 0.013 µM
SMILES: O=C(NCCCCc1ccccc1)Nc1cccc(CCNCC(O)c2ccc(O)c3[nH]c(=O)ccc23)c1 [Example 20, N-[3-(2-{[(2R,S)-2-hydroxy-2-(8-hydroxy-2-oxo-1,2-dihydroquinolin-5-yl)ethyl]amino}ethyl)phenyl]-N′-(4-phenylbutyl)urea]

IC50 [1]: 0.0059 µM
IC50 [2]: 0.036 µM
SMILES: O=C(NCC12CC3CC(CC(C3)C1)C2)Nc1cccc(CCNCC(O)c2ccc(O)c3[nH]c(=O)ccc23)c1 [Example 23, N-(1-adamantylmethyl)-N′-[3-(2-{[(2R,S)-2-hydroxy-2-(8-hydroxy-2-oxo-1,2-dihydroquinolin-5-yl)ethyl]amino}ethyl)phenyl]urea]

IC50 [1]: 0.0053 µM
β1/β2 ratio [1]: 4.6
IC50 [2]: 0.0245 µM
SMILES: O=C(Nc1cccc(CCNC[C@H](O)c2ccc(O)c3[nH]c(=O)ccc23)c1)NC(c1ccccc1)c1ccccc1 [Example 26, N-(diphenylmethyl)-N′-[3-(2-{[(2R)-2-hydroxy-2-(8-hydroxy-2-oxo-1,2-dihydroquinolin-5-yl)ethyl]amino}ethyl)phenyl]urea]

IC50 [1]: 0.0097 µM
β1/β2 ratio [1]: 2.5
IC50 [2]: 0.024 µM
SMILES: O=C(Nc1cccc(CCNC[C@H](O)c2ccc(O)c3[nH]c(=O)ccc23)c1)Nc1ccccc1-c1ccccc1 [Example 27, N-biphenyl-2-yl-N′-[3-(2-{[(2R)-2-hydroxy-2-(8-hydroxy-2-oxo-1,2-dihydroquinolin-5-yl)ethyl]amino}ethyl)phenyl]urea]

IC50 [1]: 0.0028 µM
β1/β2 ratio [1]: 9.1
IC50 [2]: 0.0255 µM
SMILES: C[C@@H](Cc1cccc(NC(=O)Nc2ccccc2-c2ccccc2)c1)NC[C@H](O)c1ccc(O)c2[nH]c(=O)ccc12 [Example 32, N-biphenyl-2-yl-N′-[3-(2-{[(2R)-2-hydroxy-2-(8-hydroxy-2-oxo-1,2-dihydroquinolin-5-yl)ethyl]amino}propyl)phenyl]urea, b isomer]

IC50 [1]: 0.0045 µM
β1/β2 ratio [1]: 4.3
IC50 [2]: 0.0195 µM
SMILES: O=C(Nc1ccc(CCNC[C@H](O)c2ccc(O)c3[nH]c(=O)ccc23)cc1)NC(c1ccccc1)c1ccccc1 [Example 36, N-(diphenylmethyl)-N′-[4-(2-{[(2R)-2-hydroxy-2-(8-hydroxy-2-oxo-1,2-dihydroquinolin-5-yl)ethyl]amino}ethyl)phenyl]urea]
